Source: patent US5409932A, “Piperazine-substituted pyrroloanthracenes” (Bayer AG, priority 1993, dated 1995)

Columns and labels:
[1] = tested on: Adjuvant Arthritis model in the Rat; assay: Adjuvant Arthritis model in the Rat (paw swelling); format: in vivo; conditions: Lewis rats; for inhibition in vivo at 10 mg/kg: Rattus norvegicus, ip, 384 h, 10 mg/kg i.p., days 0, 1, 2, 5, 7, 9, 12 and 14, day 16 vs day 0, read-out: Inhibition of the swelling (%), after administration of 10 mg/kg i.p.; for Inhibition of the swelling (%), after administration of 10 mg/kg i.p.: days 0, 1, 2, 5, 7, 9, 12 and 14, day 16 vs day 0
Procedure: Adjuvant Arthritis model in the Rat
Freund's adjuvant (FA) is prepared by addition of 10 mg/ml of heat-killed Mycobacterium butyricum to extra-heavy mineral oil. Lewis rats receive a 0.1 ml injection of FA (1 mg/animal) subcutaneously in the right hind paw. An acute inflammation takes place there, which is characterized by reddening, edema and a predominant neutrophilic cell infiltration (primary reaction). Tumescent areas in the treated paw on day 5 are followed between day 10-12 by an increase in the swelling (chronic inflammatory reaction) and the occurrence of a swelling in the opposite untreated paw (secondary immune response).
The cell infiltration of the chronic inflammation and the second immune response are mainly mononuclear, which indicates the presence of T-cell mediated immunity. The animals are observed daily, and the swelling is measured in millimeters on days 12 and 16 using a hand-adjustable micrometer. The swelling reaches its peak on the 16th day, on which the animals are sacrificed and tissue samples are taken for histological evaluation.
The extent of the swelling is determined by calculation of the greatest difference in the malleolus diameter between the 16th and the 0th day.
The animals receive the compounds according to the invention in a suspension of 5% polyethylene glycol and 0.5% Tween 80 in phosphate buffer solution p.o. or i.p. on days 0, 1, 2, 5, 7, 9, 12 and 14 [cf. for this purpose L. Sokoloff, 1984, Int. Rev. Exp. Pathol. 26, 107; M. E. J. Bittingham et al., 1989, J. Exp. Med. 171, 339; K. M. Conholly et al., 1989, Agents and Actions 27, 328].

human T cells = assay: Inhibition of 5-HT-dependent T Cell Proliferation; format: cell-based; conditions: monocyte-free human T cells stimulated with PWM and 5-HT, 3H-thymidine incorporation, 7 days
From the text: The in vitro activity of the compounds according to the invention results from their capability to inhibit T cell proliferation, which is previously stimulated by serotonin.
Inhibition of 5-HT-dependent T Cell Proliferation
Peripheral mononuclear blood cells (PBMC) are obtained from the buffy coat of the blood of healthy subjects. After isolation by means of isolymph gradients (Pharmacia), the PBMC are washed twice and used directly. Purified T cells are obtained by E rosette formation with sheep erythrocytes [cf. Blue, M.-L. , J. F. Daley, H. Levine, K. A. Craig and S. F. Schlossmann, 1986, Biosynthesis and surface expression of T8 by peripheral blood T4+cells in vitro, J. Immunol. 137, 1202]. Monocytes are partially removed by adhesion to tissue culture plates or flasks. PBMC, T cells or purified T cells (depleted in monocytes) at 5×10^5 /ml, 100 μl/well are cultured in RPMI 1640 medium with 10% fetal calf serum (GIBCO) and L-glutamine in 96-well microculture plates (Becton--Dickinson)under a 5% CO2 atmosphere at 37° C. for 7 days. The cultures are treated with 1 μCi of ^3 H-thymidine for 6 h on the 7th day and collected on filter paper, and the incorporated radioactivity is determined by means of liquid scintillation counting.
The test substances are dissolved in 10 mM HCl in order to achieve a final concentration of 1 mM in each case. The compounds are diluted serially 3×with medium in order to obtain a final concentration between 33 μM-0.1 μM. PWM (1:200, pokeweed mitogen) and 5-HT (100 μm, serotonin), which contain the test substances, are added to monocyte-free human T cells. The positive control (maximum proliferation) is obtained from cultures containing T cells, PWM and 5-HT. The negative control (minimal proliferation) is obtained from cultures containing T cells and PWM without 5-HT. The inhibitory activity of the test substances is expressed as the IC50 in μM. (see also WO 92/04015)

| SMILES | inhibition in vivo at 10 mg/kg [1] | IC50 (human T cells; Homo sapiens, T-cell) | Inhibition of the swelling (%), after administration of 10 mg/kg i.p. [1] | IC50 (human T cells) |
| --- | --- | --- | --- | --- |
| CCOc1ccccc1N1CCN(CCCN2CC3C4c5ccccc5C(c5ccccc54)C3C2)CC1 (centres unmarked) [Example 87] | 22% | 5 µM |  |  |
| Cc1ccc(N2CCN(CCCN3C(=O)C4C5c6ccccc6C(c6ccccc65)C4C3=O)CC2)cc1 (centres unmarked) [Example 11] | 32% | > 10 µM |  |  |
| O=C1C2C3c4ccccc4C(c4ccccc43)C2C(=O)N1CCCN1CCN(c2ccc(Cl)cc2)CC1 (centres unmarked) [Example 2] | 4% |  |  |  |
| Clc1ccc(N2CCN(CCCN3CC4C5c6ccccc6C(c6ccccc65)C4C3)CC2)cc1 (centres unmarked) [Example 109] |  |  | 34% | 5 µM |
| c1ccc(N2CCN(CCCCCCN3CC4C5c6ccccc6C(c6ccccc65)C4C3)CC2)cc1 (centres unmarked) [Example 64] | 76% | 1 µM |  |  |
| COc1ccccc1N1CCN(CCCCN2CC3C4c5ccccc5C(c5ccccc54)C3C2)CC1 (centres unmarked) [Example 71] | 82% | 5 µM |  |  |
| Fc1ccccc1N1CCN(CCCCN2CC3C4c5ccccc5C(c5ccccc54)C3C2)CC1 (centres unmarked) [Example 72] | 87% | 2 µM |  |  |
| CC12c3ccccc3C(c3ccccc31)C1C(=O)N(CCCN3CCN(c4ccccc4)CC3)C(=O)C12 (centres unmarked) [Example 29] | 24% | > 10 µM |  |  |
| Clc1ccc(N2CCN(CCCN3CC4C5c6ccccc6C(c6ccccc65)C4C3)CC2)cc1 (centres unmarked) [Example 59] |  | 3 µM | 53% |  |
| c1ccc(N2CCN(CCCCN3CC4C5c6ccccc6C(c6ccccc65)C4C3)CC2)cc1 (centres unmarked) [Example 62] | 90% | 5 µM |  |  |
| CC12c3ccccc3C(c3ccccc31)C1C(=O)N(CCCN3CCN(c4ccc(Cl)cc4)CC3)C(=O)C12 (centres unmarked) [Example 30] | 47% | 5 µM |  |  |
| Fc1ccc(N2CCN(CCCN3CC4C5c6ccccc6C(c6ccccc65)C4C3)CC2)cc1 (centres unmarked) [Example 58, 13-{3-[4-(4-Fluorophenyl)-piperazin-1-yl]propyl}-9,10,11,12,14,15-hexahydro-9,10[3', 4']pyrroloanthracene] | 40% | 5 µM |  |  |
| CC12C(=O)N(CCCN3CCN(c4ccc(F)cc4)CC3)C(=O)C1C1c3ccccc3C2c2ccccc21 (centres unmarked) [Example 40] | 29% | 5 µM |  |  |
| c1ccc(N2CCN(CCCN3CC4C5c6ccccc6C(c6ccccc65)C4C3)CC2)cc1 (centres unmarked) [Example 61] | 50% | 5 µM |  |  |
| COc1ccccc1N1CCN(CCCN2CC3C4c5ccccc5C(c5ccccc54)C3C2)CC1 (centres unmarked) [Example 86] |  | 3 µM |  |  |
| COc1cc(N2CCN(CCCN3CC4C5c6ccccc6C(c6ccccc65)C4C3)CC2)cc(OC)c1OC (centres unmarked) [Example 106] |  | 0.5 µM |  |  |
| Fc1ccc(N2CCN(CCCN3CC4C5c6ccccc6C(C=Cc6ccccc6)(c6ccccc65)C4C3)CC2)cc1 (centres unmarked) [Example 103] |  | 2 µM |  |  |
| Cc1ccccc1N1CCN(CCCN2CC3C4c5ccccc5C(c5ccccc54)C3C2)CC1 (centres unmarked) [Example 84] |  | 2 µM |  |  |
| O=C1C2C3c4ccccc4C(c4ccccc43)C2C(=O)N1CCCCN1CCN(c2ccc(F)cc2)CC1 (centres unmarked) [Example 5] |  | > 10 µM |  |  |
| OCC12c3ccccc3C(c3ccccc31)C1CN(CCCN3CCN(c4ccccc4)CC3)CC12 (centres unmarked) [Example 97] |  | 10 µM |  |  |
| Fc1ccc(N2CCN(CCCN3CC4C5c6ccccc6C(Cl)(c6ccccc65)C4C3)CC2)cc1 (centres unmarked) [Example 100] |  | 2 µM |  |  |
| CCc1ccccc1N1CCN(CCCN2CC3C4c5ccccc5C(c5ccccc54)C3C2)CC1 (centres unmarked) [Example 85] |  | 3 µM |  |  |
| O=C1C2C(CN1CCCN1CCN(c3ccccc3)CC1)C1(Cl)c3ccccc3C2(Cl)c2ccccc21 (centres unmarked) [Example 116] |  | 2 µM |  |  |
| O=C1C2C3c4ccccc4C(c4ccccc4)(c4ccccc43)C2C(=O)N1CCCN1CCN(c2ccc(F)cc2)CC1 (centres unmarked) [Example 49] |  | > 50 µM |  |  |
| O=C1C2C(C(=O)N1CCCN1CCN(c3ccc(F)cc3)CC1)C1(Br)c3ccccc3C2(Br)c2ccccc21 (centres unmarked) [Example 45] |  | > 10 µM |  |  |
